Measurements from ChEMBL document CHEMBL3232706, “SAR-studies on the importance of aromatic ring topologies in search for selective 5-HT(7) receptor ligands among phenylpiperazine hydantoin derivatives” (Eur J Med Chem, 2014).

Tests used:
[1] = target: T1, 5-hydroxytryptamine receptor 1A (Homo sapiens, UniProt P08908); assay: Displacement of [3H]-8-OH-DPAT from human recombinant 5-HT1A receptor expressed in HEK293 cell membrane after 1 hr by Microbeta scintillation counting analysis; assay type: cell membranes
T1 sequence (P08908 whole entry): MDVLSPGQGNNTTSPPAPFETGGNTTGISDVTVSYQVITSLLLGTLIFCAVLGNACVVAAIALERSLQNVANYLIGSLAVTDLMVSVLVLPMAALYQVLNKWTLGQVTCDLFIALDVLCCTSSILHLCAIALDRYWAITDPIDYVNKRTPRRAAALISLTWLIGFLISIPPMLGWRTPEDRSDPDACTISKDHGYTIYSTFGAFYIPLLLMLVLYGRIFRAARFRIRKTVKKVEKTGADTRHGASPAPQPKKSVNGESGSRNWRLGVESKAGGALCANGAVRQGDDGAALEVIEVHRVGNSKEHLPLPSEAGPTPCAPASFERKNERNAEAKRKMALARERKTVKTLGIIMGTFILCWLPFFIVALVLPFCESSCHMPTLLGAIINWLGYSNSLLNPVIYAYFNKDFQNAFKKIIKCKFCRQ

[2] = target: 5-hydroxytryptamine receptor 6 (Homo sapiens, UniProt P50406); assay: Displacement of [3H]-LSD from human recombinant 5-HT6 receptor expressed in HEK293 cell membrane after 1 hr by Microbeta scintillation counting analysis; assay type: cell membranes
[3] = target: 5-hydroxytryptamine receptor 7 (Homo sapiens, UniProt P34969); assay: Displacement of [3H]-5-CT from human recombinant 5-HT7 receptor expressed in HEK293 cell membrane after 1 hr by Microbeta scintillation counting analysis; assay type: cell membranes
[4] = target: T2, Adrenergic receptor alpha-1 (Rattus norvegicus, UniProt P15823+P23944+P43140); assay: Displacement of [3H]prazosin from alpha1 adrenergic receptor in rat cerebral cortex after 30 mins by Microbeta scintillation counting analysis; assay type: tissue-based
T2 sequence (P15823 whole entry): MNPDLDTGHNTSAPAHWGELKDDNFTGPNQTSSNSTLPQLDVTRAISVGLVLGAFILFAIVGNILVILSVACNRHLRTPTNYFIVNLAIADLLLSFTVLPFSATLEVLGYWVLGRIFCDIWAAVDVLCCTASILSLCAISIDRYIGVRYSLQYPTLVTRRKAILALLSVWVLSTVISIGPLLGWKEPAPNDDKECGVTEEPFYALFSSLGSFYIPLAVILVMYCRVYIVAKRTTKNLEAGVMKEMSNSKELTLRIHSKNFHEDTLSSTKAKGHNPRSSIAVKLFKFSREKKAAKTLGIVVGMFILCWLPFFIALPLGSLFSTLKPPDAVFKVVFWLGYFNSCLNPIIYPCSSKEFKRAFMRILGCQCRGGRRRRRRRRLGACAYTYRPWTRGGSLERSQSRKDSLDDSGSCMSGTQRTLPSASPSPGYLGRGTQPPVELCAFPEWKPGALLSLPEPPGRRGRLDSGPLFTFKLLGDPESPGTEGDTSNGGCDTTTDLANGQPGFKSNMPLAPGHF
T2 sequence (P23944 whole entry): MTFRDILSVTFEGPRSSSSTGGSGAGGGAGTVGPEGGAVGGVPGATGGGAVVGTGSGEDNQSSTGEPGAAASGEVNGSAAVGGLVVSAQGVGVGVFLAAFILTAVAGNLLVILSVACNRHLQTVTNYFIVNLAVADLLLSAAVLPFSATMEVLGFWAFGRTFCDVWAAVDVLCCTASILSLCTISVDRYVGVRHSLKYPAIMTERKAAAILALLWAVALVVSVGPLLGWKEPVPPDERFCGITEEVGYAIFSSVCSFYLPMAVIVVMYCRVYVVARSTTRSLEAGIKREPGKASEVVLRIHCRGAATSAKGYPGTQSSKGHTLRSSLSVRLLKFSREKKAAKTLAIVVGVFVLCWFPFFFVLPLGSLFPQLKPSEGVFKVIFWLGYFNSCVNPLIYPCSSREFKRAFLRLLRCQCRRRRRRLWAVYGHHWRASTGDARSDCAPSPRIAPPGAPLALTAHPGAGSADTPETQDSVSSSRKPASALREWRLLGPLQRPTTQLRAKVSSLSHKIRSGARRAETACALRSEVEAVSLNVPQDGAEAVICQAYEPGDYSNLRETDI
T2 sequence (P43140 whole entry): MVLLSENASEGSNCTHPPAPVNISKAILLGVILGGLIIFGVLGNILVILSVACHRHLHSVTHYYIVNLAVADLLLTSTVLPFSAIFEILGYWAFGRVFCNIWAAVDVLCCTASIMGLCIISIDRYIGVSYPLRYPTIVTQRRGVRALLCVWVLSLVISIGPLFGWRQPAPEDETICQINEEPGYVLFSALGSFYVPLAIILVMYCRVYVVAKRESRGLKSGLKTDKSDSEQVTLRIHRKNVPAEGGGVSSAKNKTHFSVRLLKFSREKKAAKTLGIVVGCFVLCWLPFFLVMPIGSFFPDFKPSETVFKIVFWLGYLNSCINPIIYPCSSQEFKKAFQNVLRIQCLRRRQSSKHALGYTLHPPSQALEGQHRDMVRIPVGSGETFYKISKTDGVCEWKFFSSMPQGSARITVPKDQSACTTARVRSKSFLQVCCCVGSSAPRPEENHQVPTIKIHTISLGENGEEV

[5] = target: T3, Alpha-1A adrenergic receptor (Rattus norvegicus, UniProt P43140); assay: Antagonist activity at alpha1A adrenoceptor in Wistar (Krf:(WI) WU) rat endothelium-denuded tail artery assessed as inhibition of noradrenaline-induced contraction after 30 mins; settings: read-out: pA2 (converted)
T3 sequence (P43140 whole entry): T2 sequence (P43140 whole entry)

[6] = target: T4, Alpha-1B adrenergic receptor (Mus musculus, UniProt P97717); assay: Antagonist activity at alpha1B-adrenoceptor in Albino swiss mouse spleen assessed as inhibition of noradrenaline-induced contraction after 30 mins; settings: read-out: pA2 (converted)
T4 sequence (P97717 whole entry): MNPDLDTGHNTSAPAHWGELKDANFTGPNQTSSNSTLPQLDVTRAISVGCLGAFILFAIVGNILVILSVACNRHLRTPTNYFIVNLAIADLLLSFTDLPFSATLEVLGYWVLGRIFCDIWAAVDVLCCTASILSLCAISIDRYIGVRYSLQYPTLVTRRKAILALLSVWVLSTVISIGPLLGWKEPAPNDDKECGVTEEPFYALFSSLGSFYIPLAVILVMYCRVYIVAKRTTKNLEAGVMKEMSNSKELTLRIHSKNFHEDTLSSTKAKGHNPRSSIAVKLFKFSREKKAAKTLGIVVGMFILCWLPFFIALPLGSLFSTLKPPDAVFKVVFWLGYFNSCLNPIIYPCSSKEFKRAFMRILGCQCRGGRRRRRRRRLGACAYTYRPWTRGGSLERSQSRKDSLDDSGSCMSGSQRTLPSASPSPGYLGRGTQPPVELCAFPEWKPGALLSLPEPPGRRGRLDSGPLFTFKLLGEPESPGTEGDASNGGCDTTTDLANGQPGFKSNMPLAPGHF

[7] = target: T5, Alpha-1D adrenergic receptor (Rattus norvegicus, UniProt P23944); assay: Antagonist activity at alpha1D adrenoceptor in Wistar (Krf:(WI) WU) rat endothelium-denuded thoracic aorta assessed as inhibition of noradrenaline-induced contraction after 30 mins; settings: read-out: pA2 (converted)
T5 sequence (P23944 whole entry): T2 sequence (P23944 whole entry)

[8] = target: T6, 5-hydroxytryptamine receptor 3A (Homo sapiens) (UniProt P46098); assay: Reversible inhibition of human 5-HT3A expressed in xenopus oocytes assessed as decrease in 5-HT-activated chloride current at […] by two-electrode voltage clamp technique; assay type: cell-based
T6 sequence (whole entry): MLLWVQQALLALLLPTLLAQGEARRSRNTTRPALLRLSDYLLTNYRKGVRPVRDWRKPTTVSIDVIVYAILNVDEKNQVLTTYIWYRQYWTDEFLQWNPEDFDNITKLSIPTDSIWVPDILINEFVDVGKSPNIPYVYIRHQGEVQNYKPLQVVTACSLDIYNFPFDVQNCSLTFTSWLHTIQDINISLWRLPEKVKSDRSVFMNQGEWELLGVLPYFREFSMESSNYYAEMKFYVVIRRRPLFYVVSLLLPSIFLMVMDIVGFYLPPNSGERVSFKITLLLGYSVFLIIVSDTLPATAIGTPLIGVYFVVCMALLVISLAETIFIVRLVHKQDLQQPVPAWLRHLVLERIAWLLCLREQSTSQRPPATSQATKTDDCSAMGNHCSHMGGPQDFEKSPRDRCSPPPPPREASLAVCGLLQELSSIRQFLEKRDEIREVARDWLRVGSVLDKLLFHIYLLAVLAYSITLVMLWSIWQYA

HEK293 [9] = assay: Selectivity ratio of Ki for alpha1 adrenergic receptor in rat cerebral cortex to Ki for human recombinant 5-HT7 receptor expressed in HEK293 cell membrane; assay type: cell-based
HEK293 [10] = assay: Selectivity ratio of Ki for human recombinant 5-HT1A receptor expressed in HEK293 cell membrane to Ki for human recombinant 5-HT7 receptor expressed in HEK293 cell membrane; assay type: cell-based

5-hydroxytryptamine receptor 6, sequence (P50406 whole entry): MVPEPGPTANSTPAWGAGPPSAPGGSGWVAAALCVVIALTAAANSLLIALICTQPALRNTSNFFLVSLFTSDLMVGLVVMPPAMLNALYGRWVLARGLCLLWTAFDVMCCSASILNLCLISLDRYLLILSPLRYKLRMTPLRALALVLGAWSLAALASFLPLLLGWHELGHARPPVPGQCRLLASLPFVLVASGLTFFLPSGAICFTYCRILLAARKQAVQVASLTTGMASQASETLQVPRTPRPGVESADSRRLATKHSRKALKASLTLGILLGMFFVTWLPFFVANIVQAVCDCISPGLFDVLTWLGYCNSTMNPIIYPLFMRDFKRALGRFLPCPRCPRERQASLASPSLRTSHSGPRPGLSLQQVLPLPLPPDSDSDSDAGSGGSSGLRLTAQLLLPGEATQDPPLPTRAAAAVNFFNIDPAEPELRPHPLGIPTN
5-hydroxytryptamine receptor 7, sequence (P34969 whole entry): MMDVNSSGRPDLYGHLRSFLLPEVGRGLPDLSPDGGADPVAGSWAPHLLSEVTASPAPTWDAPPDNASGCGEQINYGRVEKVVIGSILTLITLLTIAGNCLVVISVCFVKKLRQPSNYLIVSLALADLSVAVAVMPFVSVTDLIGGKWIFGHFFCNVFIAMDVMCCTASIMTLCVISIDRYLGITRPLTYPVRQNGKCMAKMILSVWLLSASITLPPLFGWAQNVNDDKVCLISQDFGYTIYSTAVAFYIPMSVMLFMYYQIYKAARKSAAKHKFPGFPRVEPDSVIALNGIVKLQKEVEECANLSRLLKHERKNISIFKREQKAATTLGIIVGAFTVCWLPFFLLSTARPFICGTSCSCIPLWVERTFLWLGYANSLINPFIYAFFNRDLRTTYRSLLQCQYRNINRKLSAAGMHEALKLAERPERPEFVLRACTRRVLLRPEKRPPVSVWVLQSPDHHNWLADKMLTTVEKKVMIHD

Ki [1] | Ki [2] | Ki [3] | Ki [4] | Kb [5] | Kb [6] | Kb [7] | inhibition [8] | SMILES | Ratio Ki (HEK293 [9]) | Ratio Ki (HEK293 [10])
0.8 nM | 3570 nM | 16 nM | – | – | – | – | – | COc1ccccc1N1CCN(CCCCN2C(=O)N(C)C(=O)C2(c2ccccc2)c2ccccc2)CC1 | – | –
124 nM | 25500 nM | 157 nM | 11.3 nM | 48.3 nM | 7.21 nM | 3.01 nM | – | CN1C(=O)N(CCCCCN2CCN(c3ccccc3F)CC2)C(C)(c2ccccc2)C1=O.Cl (stereo not given) | – | –
76 nM | 2510 nM | 135 nM | 71 nM | – | – | – | – | CC1(C)C(=O)N(Cc2ccccc2)C(=O)N1CCCCCN1CCN(c2ccccc2F)CC1.Cl | – | –
13.2 nM | 3070 nM | 77 nM | 6.7 nM | – | – | – | 36.9% | CN1C(=O)N(CCCCCN2CCN(c3ccccc3)CC2)C(c2ccccc2)(c2ccccc2)C1=O.Cl | – | –
235 nM | 7470 nM | 172 nM | 71.5 nM | – | – | – | – | CC1(C)C(=O)N(Cc2ccccc2)C(=O)N1CCCCCN1CCN(c2ccc(F)cc2F)CC1.Cl | – | –
6.5 nM | 29100 nM | 210 nM | – | – | – | – | – | COc1ccccc1N1CCN(CCCN2C(=O)N(C)C(=O)C2(c2ccccc2)c2ccccc2)CC1 | – | –
5.5 nM | 4140 nM | 95 nM | 2600 nM | – | – | – | – | CCOc1ccccc1N1CCN(CCCN2C(=O)N(C)C(=O)C2(c2ccccc2)c2ccccc2)CC1 | – | –
26 nM | 8610 nM | 72 nM | 42.6 nM | – | – | – | – | COc1ccccc1N1CCN(CCCCCN2C(=O)N(Cc3ccccc3)C(=O)C2(C)C)CC1.Cl | – | –
2180 nM | 2880 nM | 456 nM | 758.5 nM | – | – | – | – | CC1(C)C(=O)N(Cc2ccc(Cl)cc2Cl)C(=O)N1CCCCCN1CCN(c2ccc(Cl)cc2)CC1.Cl | – | –
324 nM | 20400 nM | 353 nM | – | – | – | – | – | CN1C(=O)N(CC(O)CN2CCN(c3ccccc3)CC2)C(c2ccccc2)(c2ccccc2)C1=O (stereo not given) | – | –
23.3 nM | 14600 nM | 34 nM | 42.3 nM | – | – | – | 19.8% | COc1ccccc1N1CCN(CCCCCN2C(=O)N(C)C(=O)C2(C)c2ccccc2)CC1.Cl (stereo not given) | – | –
45 nM | 2930 nM | 122 nM | 97.2 nM | – | – | – | – | COc1cccc(N2CCN(CCCCCN3C(=O)N(Cc4ccccc4)C(=O)C3(C)C)CC2)c1.Cl | – | –
299 nM | 8100 nM | 123 nM | 38.8 nM | – | – | – | – | CC1(C)C(=O)N(Cc2ccc(F)cc2)C(=O)N1CCCCCN1CCN(c2ccc(F)cc2F)CC1.Cl | – | –
201 nM | 1940 nM | 45 nM | 68.4 nM | – | – | – | – | CC1(C)C(=O)N(Cc2ccccc2)C(=O)N1CCCCCN1CCN(c2ccc(F)cc2)CC1.Cl | – | –
– | 10800 nM | – | 181.1 nM | – | – | – | 16.6% | COc1ccccc1N1CCN(CC(O)CN2C(=O)NC(C)(c3ccc(F)cc3)C2=O)CC1.Cl (stereo not given) | – | –
301 nM | 314 nM | 78 nM | 673 nM | – | – | – | – | CC1(C)C(=O)N(Cc2ccc(Cl)cc2Cl)C(=O)N1CCCCCN1CCN(c2ccc(Cl)c(Cl)c2)CC1.Cl | 9 | 4
79 nM | 4370 nM | 70 nM | 68 nM | – | – | – | 14.3% | CC1(C)C(=O)N(Cc2ccccc2)C(=O)N1CCCCCN1CCN(c2ccccc2)CC1.Cl | – | –
135 nM | 9600 nM | – | 7.3 nM | 38.6 nM | 48.8 nM | 7.31 nM | – | CN1C(=O)N(CCCCCN2CCN(c3ccccc3)CC2)C(C)(c2ccccc2)C1=O.Cl (stereo not given) | – | –
305 nM | 1760 nM | 46 nM | 36.8 nM | – | – | – | 17.2% | CC1(C)C(=O)N(Cc2ccc(F)cc2)C(=O)N1CCCCCN1CCN(c2ccc(F)cc2)CC1.Cl | – | –
88 nM | 395 nM | 31 nM | 968.8 nM | – | – | – | 13.8% | CC1(C)C(=O)N(Cc2ccc(Cl)cc2Cl)C(=O)N1CCCCCN1CCN(c2cccc(Cl)c2Cl)CC1.Cl | 31 | 3
